# Source: US8637573B2 (Iasomai AB, priority 2009, dated 2014)
# Columns and labels:
# vaginal hyperalgesia = assay: Experimentally induced endometriosis in rats: escape response to vaginal distention (vaginal hyperalgesia); assay type: in vivo, Sprague-Dawley rats; conditions: 60 mg/kg/day, 8 weeks, 0.5 ml distension volume
# Protocol: 16 adult virgin female Sprague-Dawley rats were used. They weighed 200-230 g at the start of the study and were housed individually in a temperature-controlled room in plastic cages lined with bedding. The rats had ad libitum access to water and rat chow and were maintained on a 12-h light/dark cycle, with lights on at 07:00. Reproductive status (proestrus, estrus, metestrus, and diestrus) was determined by daily vaginal lavage performed. Prior to induction of endometriosis rats were trained to perform an escape response to terminate vaginal distention produced by an inflatable latex balloon. A small uninflated latex balloon was tied to a thin catheter lubricated before being inserted into the mid-vaginal canal. Inflating the balloon with different volumes of air distended the vaginal canal. The pressure produced by each volume of distention was control measured through a small-volume pressure transducer. The testing apparatus was a small cylindrical plexiglass chamber designed to contain the rat just enough to prevent her from turning around. An opening in the rear of the chamber allowed the catheter attached to the vaginal stimulator to be connected to a stimulus apparatus. A photosensor determined the position of the rat in the chamber. If the rat extended, as part of an escape response, the light beam was broken and the stimulus was terminated. The rats were adopted to the testing chamber by placing it in the chamber for 15 min daily for 5 days. The rats were then, during training sessions, accustomed to a mechanical escape response to deflate vaginal distension, which involved the rat extending her head to interrupt the light beam. […] Time to response and escape responses were measured as a function of distention volume for each session, as described in Cason A M et al (Horm Behav. (2003), Vol. 44, pages 123-31). […] For each rat, the escape responses and pressures/volumes for all of that rat's sessions (at least 12 sessions) were combined, and the mean values calculated. […] The escape response to terminate vaginal distention, as described above, was assessed after 8 weeks.
# [1] = Preliminary clinical study: pain intensity by 10-points visual analogue scale (VAS); assay type: in vivo, women; conditions: NAC-treated patients, 10-points VAS
# Protocol: (§1) Before treatment, the intensity of pain symptoms was measured by the means of a 10 points visual analogue scale (VAS) and the characteristics of the ovarian endometriomas by transvaginal ultrasounds. During NAC treatment, other treatments are excluded with the exception of analgesic to treat pain, when needed. Patients.
# (§2) From February 2008 to July 2010, 64 women diagnosed for ovaric endometriosis were enrolled in the study, with a mean age of 35+−7 years (+−SD). […] All of them presented one or more cysts at one or both ovaries.
# (§3) 1995; 4:245-51), the suspension of the treatment for about half of each week warrants an optimal biological response in a lengthy treatment, e.g. two to six months or longer.
# (§4) Pain symptoms intensity (VAS pain scale) and the size of the ovarian endometriomas (clinical and US exams) were evaluated after the first three months of treatment. If necessary, laparoscopic treatment was performed after 3 months.
# Pain perception was also modified after NAC treatment. Pain was evaluated, before and after the three-months treatment, by a 10-points visual analogue scale (VAS) with zero representing no pain and 10 representing the worst imaginable pain. Intensity of symptoms were classified as none (0), mild (1-4), moderate (5-7), or severe (8-10). NAC-treated patients reported an average pain reduction, from 7.6+−0.3 to 5.1+−0.8 (p<0.01) after three months of treatment.
# P21 (cdkn1a) = assay: RT-PCR of P21 gene expression in cysts from mice; assay type: in vivo, BALB/C mice; conditions: 44 mg/kg/day, 21 days
# Protocol: (§5) The day after the endometrial implant, mice of the treatment group were subjected to gavage with 100 [mu] […] The control group only received water. […] At the end of treatment, mice were killed through cervical dislocation.
# Total RNA was isolated by lysing the frozen endometrial cysts with TissueLyser (QIAGEN, Milan, Italy) using TRIzol Reagent (Invitrogen, Milan, Italy) according to the manufacturer's instructions. One microgram of total RNA from each sample was treated with 1 U of DNAse I (Invitrogen) and reverse transcribed with 200 U of Superscript III Reverse Transcriptase (Invitrogen), using 250 ng of random primers in 20 [mu] l of final volume. […]
# First, the ratio between the sample and the housekeeping gene was calculated by simultaneous amplification of gene-specific mRNA and 18S RNA in a single reaction tube. Since this procedure was not successful for all samples—likely due to the relative small number of specific transcripts thus of a preferential amplification of 18S mRNA—to prevent quantitative inaccuracies deriving from competitive effects, the target genes and 18 S cDNA generated in the same RT reaction were amplified in separate tubes. […] Semi quantitative PCR was performed in a 25 [mu] […] The densitometric analyses of the PCR products were performed using an image software Quantity One (VersaDOC, Bio-Rad).
# [2] = Toxicity observation in the murine endometriosis model; assay type: in vivo; conditions: mice, 44 mg/kg/day by gavage, 21 days
# From the text: as §5
# [3] = cited from earlier work
# ovarian endometriomas = assay: Preliminary clinical study: size of ovarian endometriomas by ultrasound; assay type: in vivo; conditions: women
# Protocol: Women with a first diagnosis of endometriosis, based on pain and on ovarian ultrasound evidence of the disease, and patients with a recurrence of pain and/or ovarian endometrioma after laparoscopic treatment were enrolled in the study,
# as §1, §2, §3, §4
# E-cadherin = assay: Immunohistochemical detection of E-cadherin in cysts from mice; assay type: in vivo, BALB/C mice; conditions: 44 mg/kg/day, 21 days, controls: diffused all over cell cytoplasm
# Protocol: as §5
# (§6) Formalin-fixed samples were paraffin-embedded and tissue sections (5 [mu] [iota] [eta] thick) were stained using haematoxylin-eosin. All slides were evaluated by an experienced pathologist who was blind to the study and the histological diagnosis of endometriosis was based on the morphological identification of endometrial glandular tissue and stroma.
# (§7) For immunohistochemistry, sections were deparaffinized and rehydrated in graded ethanol. For antigen retrieval, sections were microwaved for 6 min in 0.1 M citrate buffer (pH 6.0) and endogenous peroxidase activity was blocked by a 20 min incubation in 3% H202/methanol. Sections were rinsed in PBS/TritonX-100, immersed for 15 min in PBS-bovine serum albumin (BSA) 1% to block unspecific binding sites, and then incubated with the selected primary antibody diluted in PBS-BSA 1%. […] The quantification of Ki-67 expression was carried out in a blind fashion by two independent observers; each observer counted at least 200 cells in more than 10 randomly chosen fields for each sample and the Ki-67 labeling index was expressed in percentage.
# Ki-67 = Ki-67 immunohistochemistry (labeling index) in cysts from mice; assay type: in vivo, BALB/C mice; conditions: 44 mg/kg/day, 21 days
# Protocol: as §5, §6, §7
# [4] = Preliminary clinical study: side effects, pregnancy and other observations; assay type: in vivo, women
# From the text: as §2, §3, §4
# endometriotic lesions = assay: Murine model of endometriosis: growth (total weight) of endometriotic lesions; assay type: in vivo, BALB/C mice; conditions: mice, gavage 44 mg/kg/day daily for 21 days; n=10 vs n=10; p<0.05
# Protocol: 36 female, 6 to 8 weeks-old BALB/C mice were purchased from Charles River Italia (Calco, Italy). Pellet food (enriched standard diet; Mucedola, Milan, Italy) and water were provided ad libitum. Animals were kept on a light/dark cycle of 16/8 hours under controlled conditions. Prior to any invasive procedure, the mice were anaesthetized by intraperitoneal injection of 0.4 ml of a physiological solution containing 2.5% AVERTIN.
# Induction of endometriosis was performed following the method described in Somigliana et al, Hum Reprod 1999 December; 14(12):2944-50. Surgical interventions were performed under clean conditions. Briefly, uterine horns of syngenic mice were removed through a small midline incision into the peritoneal space, just below the umbilicus, and put into a Petri dish containing phosphate-buffered saline (PBS). Endometrial fragments were obtained by finely chopping uterine horns by using a razor blade. Fragments were suspended in 0.6 ml of PBS and rapidly inoculated into the peritoneal cavity of recipient mice with a ratio of one donor to two recipients. The endometriosis-induced mice were randomly divided into two groups of 12 mice each: control and NAC-treatment. […]
# At the end of the treatment, animals were sacrificed and endometriotic lesions were carefully excised from the surrounding tissue, their total weight and number was assessed. […]
# Cox-2 protein = assay: Immunohistochemical detection of Cox-2 protein in cysts from mice; assay type: in vivo, BALB/C mice; conditions: 44 mg/kg/day, 21 days
# Protocol: as §5, §6, §7
structure (smiles),measurement,setting,value
"CC(=O)N[C@@H](CS)C(=O)O [NAC, N-acetyl-L-cysteine]",relative reduction in escape response in relation to sham treated group,vaginal hyperalgesia; daily NAC treatment,18%
same,relative reduction in escape response in relation to sham treated group,vaginal hyperalgesia; intermittent NAC treatment (5 days and 2 days rest),28%
same,relative reduction in escape response in relation to sham treated group,vaginal hyperalgesia; pulsed NAC treatment (every other day),32%
same,average pain (VAS) after three months of treatment,"[1]; 1.8 g per day three days each week, p<0.01",5.1+−0.8
same,average pain (VAS) before treatment,[1]; baseline,7.6+−0.3
same,"P21 gene expressed, number of examined NAC-treated samples",P21 (cdkn1a); never expressed in the 5 controls,3 of the 5
same,"P21 observed, percent of NAC-treated animals",P21 (cdkn1a); not expressed in controls,60%
same,body weight at the end of treatment,[2],unchanged
same,time to peak concentration in plasma,[3]; in vivo,about one
same,time to total clearance,[3]; in vivo,six and twelve
same,half-life,[3]; plasma,about three
same,cases with a decrease in cyst size (maximum diameter by ultrasound),"ovarian endometriomas; 1.8 g NAC per day, three consecutive days each week, three months, controls less than 10%",38%
same,patients who decided to cancel or postpone the programmed laparoscopy,ovarian endometriomas; NAC treatment three months,21 out of 33
same,E-cadherin localisation in cysts,E-cadherin,mainly detected along cell-cell junctions
same,reduction in proliferating cells (Ki-67) relative to control mice,Ki-67; 8 animals per group,54%
same,Labeling index for Ki-67 with standard error,"Ki-67; n = 8 × 5, p < 0.01",0.87 ± 0.11%
same,cases of pregnancy,"[4]; NAC-treated women, no statistical significance attributed",three
same,bleeding during laparoscopy after NAC treatment,"[4]; anecdotic observation by surgeon, endometrioma more regular and compact",relevant reduction in bleeding
same,recto-vaginal septum nodule,[4]; one additional case,disappeared
same,adverse side effects,"[4]; women, 1.8 g NAC per day, three days each week, three months",No adverse side effects
same,total weight of endometriotic lesions vs controls,endometriotic lesions,significant weight reduction
same,Cox-2 protein immunohistochemical staining relative to cysts from control mice,Cox-2 protein,quite a decreased staining
